Reference: paper PMC10539439 (Pharmacological Reports, 2023)
“And” between values parts separate entries of the source, which are not always exact repeats. Identical values can stand only once.

What was measured:
[1] = 5 mg/kg b.w., i.p.; cited from earlier work
[2] = 5 mg/kg b.w., i.p.; cited from earlier work; remark: listed apart in the source
[3] = Core body temperature of obese rats (implanted logger); type: in vivo, rat; conditions: for temperature after administration: hight-fat diet, 5mg/kg, individual rats 1-6
Protocol: Animals with induced obesity (two more groups) were subcutaneously implanted with a DST micro-HRT heart rate logger (Star-Oddi, Island), which simultaneously measured long-term core temperature. Under general anesthesia (thiopental, 70 mg/kg, ip), the loggers were inserted under the skin in the groin area and sutured with a surgical thread. Forty-eight hours later, the baseline temperature was measured, and at 9:30 AM, 4-OH-Guanabenz was administered ip at a dose of 5 mg/kg b.w. The first measurement was recorded 30 min after the administration of the test compound, and then, the temperature was recorded every hour. After 24 h, the loggers were removed, the temperature data were read, and Mercury software (Star-Oddi Mercury Data Logger PC Software, Iceland) was used to collect and analyze the information obtained. Using this technology, measurements are made without the direct intervention of the researcher; therefore, there is no disturbance in the readings evoked by stress in the animals.

[4] = Plasma glucose, triglyceride and total cholesterol of obese rats; type: in vivo, rat; conditions: for plasma glucose concentration / plasma total cholesterol concentration / plasma triglyceride concentration: high-fat diet, single rats 1-6
Protocol: On the 26th day of the experiment, 20 min after ip administration of heparin (5000 IU/rat) and thiopental (70 mg/kg b.w.), plasma was collected from the left carotid artery and then centrifuged at 600 × g (15 min, 4 °C) to obtain the plasma.
To determine the glucose, triglyceride, or cholesterol level in plasma, standard enzyme and spectrophotometric tests (Biomaxima S.A. Lublin, Poland) were used. The substrate was decomposed with enzymes appropriate for the relevant product, which was converted to a colored compound. The colouration was proportional to the concentration. The absorbance was measured at a wavelength of 500 nm.

α2B-adrenoceptor = molecular target: T1, α2B-adrenoceptor (Homo sapiens, UniProt P18089); assay: Intrinsic activity, AequoScreen aequorin calcium mobilization; type: cell-based
T1 sequence (P18089 1-450): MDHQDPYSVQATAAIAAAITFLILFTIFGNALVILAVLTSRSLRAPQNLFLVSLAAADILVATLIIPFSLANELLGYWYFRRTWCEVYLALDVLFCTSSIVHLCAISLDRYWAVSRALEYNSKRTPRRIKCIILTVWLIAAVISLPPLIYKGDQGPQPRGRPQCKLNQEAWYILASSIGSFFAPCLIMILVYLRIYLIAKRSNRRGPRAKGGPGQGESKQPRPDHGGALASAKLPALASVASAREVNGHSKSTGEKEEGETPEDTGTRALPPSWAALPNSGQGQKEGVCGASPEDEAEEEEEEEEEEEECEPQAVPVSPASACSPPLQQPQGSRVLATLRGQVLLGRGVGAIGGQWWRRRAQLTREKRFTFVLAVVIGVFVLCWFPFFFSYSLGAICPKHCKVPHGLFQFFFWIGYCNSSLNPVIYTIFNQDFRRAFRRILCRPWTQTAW
Protocol: The intrinsic activity at α2B-adrenoceptor was evaluated by luminescence detection of calcium mobilization using the recombinant expressed jellyfish photoprotein, aequorin.
Measurements were performed with the α2B-adrenergic AequoScreen cell line (PekinElmer cat. no. ES-031-AF). Cell density, in 96-well format measurements, was 5000 cells per well. […] Compound concentration series (50 μL/well) were diluted in 0.1% BSA (Intergen, cat. no. 3440–75) containing assay buffer (D-MEM/F-12, Invitrogen cat. no. 11039) and prepared in white ½ Area Plate—96-well microplates (PerkinElmer, cat. no. 6005560). The cell suspension was dispersed on the ligands using POLARstar optima reader injectors (BMG Labtech, Germany).
The concentration and dilution series having four replicates were prepared as instructed in the AequoScreen Starter Kit Manual. Cells were injected into wells with standard agonist or tested compounds using the POLARstar optima reader (BMG Labtech, Germany), and emitted light was recorded for 20 s. For the antagonist assay, cells were injected (50 μL) into the assay plate with antagonists (50 μL).

[5] = Food intake of rats fed a high-fat diet; type: in vivo, rat; conditions: for food intake: high-fat diet, groups (cages) 1-3
Protocol: Male Wistar rats were housed in pairs and fed a high-fat diet consisting of a 40% fat blend (Labofeed B with 40% lard, Morawski, Manufacturer Feed, Poland) for 14 weeks, with water available ad libitum. Control rats were fed a standard diet (Labofeed B, Morawski Manufacturer Feed, Poland). After 10 weeks, rats with obesity-induced via their diet were randomly divided into three equal groups that had the same mean body weight and were treated ip with test compounds at doses of 2 or 5 mg/kg b.w./day (high-fat diet + 4OHGuanabenz) or control group: vehicle–water 0.3 ml/kg (high-fat diet + vehicle = obesity control group) once a day in the morning between 9:00 AM and 10:00 AM for 25 days. Control rats were maintained on a standard diet, with ip administration of vehicle – water (standard diet + vehicle = control group).
The high-fat diet contained 550 kcal and the standard diet 280 kcal per 100 g.
Food intake was measured three times a week, immediately before drug administration. In this target, food was provided to the animals in a certain amount (100 g/cage). The weight of food was measured using dedicated scale (WPT 1C, RADWAG Wagi Elektroniczne, Poland). Next, the total amount of food that the animals had not eaten during that period of time was collected from each cage and weighed, and then, the data were recorded. The next portion of food was subsequently weighed before serving, and so on.

N=C(N)N/N=C/c1c(Cl)cccc1Cl [Guanabenz]
Amount of calories consumed [1]: ↓ [17] | Body weight of obese animals [2]: ↓ [17]

Cl.N=C(N)NN=Cc1c(Cl)cc(O)cc1Cl [4-OH-Guanabenz, 2-[(2,6-Dichloro-4-hydroxyphenyl)methylene]hydrazinecarboximidamide Hydrochloride]
temperature after administration ([3]; hour 1): 37.56 ⚬C and 36.75 ⚬C and 37.32 ⚬C and 36.19 ⚬C and 36.67 ⚬C and 36.9 ⚬C | temperature after administration ([3]; hour 2): 36.89 ⚬C and 36.98 ⚬C and 36.3 ⚬C (2×) and 37.12 ⚬C and 35.67 ⚬C | temperature after administration ([3]; hour 3): 36.21 ⚬C and 36.64 ⚬C and 36.08 ⚬C and 35.74 ⚬C and 36.23 ⚬C and 35.01 ⚬C | temperature after administration ([3]; hour 4): 36.66 ⚬C and 36.98 ⚬C and 36.64 ⚬C and 35.41 ⚬C and 35.89 ⚬C and 36.48 ⚬C | temperature after administration ([3]; hour 5): 37 ⚬C and 36.98 ⚬C and 36.95 ⚬C and 36.08 ⚬C and 36.45 ⚬C and 36.9 ⚬C | temperature after administration ([3]; hour 6): 37.34 ⚬C and 36.75 ⚬C and 36.87 ⚬C and 36.44 ⚬C and 36.59 ⚬C and 36.9 ⚬C | temperature after administration ([3]; hour 7): 36.77 ⚬C and 36.64 ⚬C (2×) and 36.19 ⚬C and 36.78 ⚬C and 36.45 ⚬C | temperature after administration ([3]; hour 8): 37 ⚬C and 36.53 ⚬C and 36.75 ⚬C and 36.42 ⚬C and 36.67 ⚬C and 36.78 ⚬C | temperature after administration ([3]; hour 9): 37.34 ⚬C and 36.42 ⚬C and 36.64 ⚬C and 36.98 ⚬C and 36.78 ⚬C and 36.67 ⚬C | temperature after administration ([3]; hour 10): 37.34 ⚬C and 36.5 ⚬C and 36.87 ⚬C and 36.53 ⚬C and 36.67 ⚬C and 37.01 ⚬C | temperature after administration ([3]; hour 11): 37 ⚬C and 36.64 ⚬C and 36.08 ⚬C and 37.09 ⚬C and 36.67 ⚬C and 36.56 ⚬C | temperature after administration ([3]; hour 12): 37 ⚬C and 36.53 ⚬C (2×) and 36.87 ⚬C and 36.56 ⚬C and 37.35 ⚬C | temperature after administration ([3]; hour 13): 37.22 ⚬C and 37.09 ⚬C and 36.75 ⚬C and 36.64 ⚬C and 36.56 ⚬C and 36.67 ⚬C | temperature after administration ([3]; hour 14): 37.34 ⚬C and 36.42 ⚬C (3×) and 36.78 ⚬C and 37.12 ⚬C | temperature after administration ([3]; hour 15): 37.34 ⚬C and 36.53 ⚬C (2×) and 36.08 ⚬C and 36.56 ⚬C and 36.45 ⚬C | temperature after administration ([3]; hour 16): 37.34 ⚬C and 37.09 ⚬C and 36.64 ⚬C and 35.97 ⚬C and 36.34 ⚬C and 36.56 ⚬C | temperature after administration ([3]; hour 17): 37 ⚬C and 37.09 ⚬C and 36.53 ⚬C and 36.67 ⚬C and 36.45 ⚬C and 37.23 ⚬C | temperature after administration ([3]; hour 18): 37.45 ⚬C and 36.53 ⚬C and 36.3 ⚬C and 37.21 ⚬C and 36.56 ⚬C and 36.34 ⚬C | temperature after administration ([3]; hour 19): 36.6 ⚬C and 36.75 ⚬C and 36.53 ⚬C and 36.3 ⚬C and 36.67 ⚬C (2×) | temperature after administration ([3]; hour 20): 37.22 ⚬C and 37.32 ⚬C and 36.19 ⚬C and 35.97 ⚬C and 36.56 ⚬C and 36.23 ⚬C | temperature after administration ([3]; hour 21): 37.45 ⚬C and 36.08 ⚬C (2×) and 36.19 ⚬C and 36.78 ⚬C and 36.12 ⚬C | temperature after administration ([3]; hour 22): 36.77 ⚬C and 36.3 ⚬C and 35.86 ⚬C and 36.08 ⚬C and 36.45 ⚬C and 36.12 ⚬C | temperature after administration ([3]; hour 23): 36.89 ⚬C and 36.3 ⚬C and 36.19 ⚬C and 36.53 ⚬C and 36.34 ⚬C and 36.23 ⚬C | temperature after administration ([3]; hour 24): 36.66 ⚬C and 36.64 ⚬C and 36.3 ⚬C and 36.19 ⚬C and 36.78 ⚬C and 35.89 ⚬C | effect on core temperature (in words) ([3]; obese rats, 5 mg/kg b.w. ip, vs obese control): No significant effects on core temperature | effect on plasma total cholesterol (in words) ([4]; high-fat diet rats, 5 mg/kg b.w.): highest plasma level of total cholesterol | effect on plasma triglyceride level (in words) ([4]; high-fat diet rats, 5 mg/kg b.w., vs obese control): significantly decreased plasma triglyceride levels | plasma glucose concentration ([4]; 2mg/kg): 4.77 mmol/L and 5.43 mmol/L and 6.06 mmol/L and 5.37 mmol/L and 5.51 mmol/L | plasma total cholesterol concentration ([4]; 2mg/kg): 0.86 mmol/L and 0.71 mmol/L and 0.87 mmol/L and 0.75 mmol/L and 0.78 mmol/L and 0.93 mmol/L | plasma triglyceride concentration ([4]; 2mg/kg): 0.17 mmol/L and 0.12 mmol/L and 0.21 mmol/L and 0.13 mmol/L and 0.14 mmol/L | plasma glucose concentration ([4]; 5mg/kg): 4.45 mmol/L and 5.37 mmol/L and 4.63 mmol/L and 5.39 mmol/L and 3.28 mmol/L and 4.68 mmol/L | plasma total cholesterol concentration ([4]; 5mg/kg): 0.93 mmol/L and 0.87 mmol/L and 0.8 mmol/L and 1.08 mmol/L and 0.88 mmol/L and 0.84 mmol/L | plasma triglyceride concentration ([4]; 5mg/kg): 0.12 mmol/L and 0.2 mmol/L and 0.1 mmol/L and 0.13 mmol/L and 0.18 mmol/L | effect on blood glucose level (in words) ([4]; obese rats, both doses (2 or 5 mg/kg b.w.), vs obese animals treated with water): significantly lower blood glucose levels | EC50 (α2B-adrenoceptor): 330 nM | Intrinsic activity at α2B-adrenoceptor (in words) (α2B-adrenoceptor): antagonist activity | effect on calories consumed (in words) ([5]; high-fat diet rats, ip at both doses (2 or 5 mg/kg b.w.), vs obesity control group): reduced the number of calories consumed | food intake ([5]; 2mg/kg, week 1, 2 mg/kg): 995.5 kcal/2rats and 924 kcal/2rats and 960 kcal/2rats | food intake ([5]; 2mg/kg, week 2, 2 mg/kg): 891 kcal/2rats and 654.5 kcal/2rats and 772.5 kcal/2rats | food intake ([5]; 2mg/kg, week 3, 2 mg/kg): 880 kcal/2rats and 863.5 kcal/2rats and 871.5 kcal/2rats | food intake ([5]; 5mg/kg, week 1, 5 mg/kg): 363 kcal/2rats and 478.5 kcal/2rats and 346.5 kcal/2rats | food intake ([5]; 5mg/kg, week 2, 5 mg/kg): 561 kcal/2rats and 621.5 kcal/2rats and 693 kcal/2rats | food intake ([5]; 5mg/kg, week 3, 5 mg/kg): 599.5 kcal/2rats and 594 kcal/2rats and 665.5 kcal/2rats
